# Experimental data published in PMC4735555, “Crystal structure of the N-myristoylated lipopeptide-bound MHC class I complex” (Nature Communications, 2016).
# System: 2N5.1
# Experiment: 2N5.1 response to C14nef5 in the presence of rhesus PBMCs and its blocking by mAbs
# Format: cell-based, rhesus macaque
# Conditions: rhesus PBMCs derived from a positive donor
# Description: The rhesus macaques (Macaca mulatta) used in this study were treated humanely in accordance with institutional regulations, and the experimental protocols were approved by the Committee for Experimental Use of Non-human Primates at the Institute for Virus Research and at the Primate Research Institute, Kyoto University. Rhesus macaque monocytes were isolated from PBMCs using MACS MicroBeads (Miltenyi Biotec, Bergisch Gladbach, Germany) conjugated with cross-reactive anti-human CD14 Abs. After immunizing BALB/c mice with these monocytes, spleen cells were obtained and fused with SP2/0 myeloma cells using the standard polyethylene glycol method. Culture supernatants of the hybridoma clones were tested at a dilution of 1:1 for their reactivity to rhesus macaque monocytes by flow cytometry and positive clones were subjected to T-cell assays to assess blocking activities.
substance,measurement,value
"C14-Gly-Gly-Ala-Ile-Ser [C14nef5, N-myristoylated 5-mer peptide (C14-Gly-Gly-Ala-Ile-Ser; C14nef5) derived from the SIV Nef protein]",2N5.1 response (IFN-γ production) in the presence of rhesus PBMCs,responded to C14nef5
